Data taken from patent publication US20120129835A1 (priority 2010, published 2012).

System: SCZD hiPSC neurons
Assay type: cell-based, human

Row | Compound | rabies trans-neuronal tracing in the presence of drugs known to affect synaptic transmission
1 | [Cl-].[K+] [KCl] | occurs
2 | NC1=N[C@H](O)[C@H]2[C@H]3O[C@]4(O)O[C@@H]([C@@H](O)[C@@]2(N1)[C@@H]4O)[C@]3(O)CO [tetrodotoxin] | occurs
3 | ryanodine | occurs
